Assay results taken from PMC10182601, “Biological evaluation of novel gemcitabine analog in patient-derived xenograft models of pancreatic cancer” (BMC Cancer, 2023).

How the values were obtained:
[1] = background statement of the introduction, no reference printed with it; cited from earlier work
PPCL-46 cells = assay: Cell viability (resazurin/Alamar blue), PPCL-46; format: cell-based; details: Homo sapiens; 48 h treatment
Protocol: (§1) PCa primary cell were cultured with Dulbecco's modified Eagle medium (DMEM) with high glucose and L-glutamine and supplemented with 10% fetal bovine serum (FBS) and 1% penicillin–streptomycin (PenStrep). Briefly, PPCL-192, PPCL-135, PPCL-46, and PPCL-68 were seeded at a density of 1 × 10^3 per well in 96-well plates in triplicates for each drug concentration level and incubated at 5% CO2 and a temperature of 37 °C [32]. At 70 -75% confluency, PPCL-192, PPCL-135, PPCL-46, and PPCL-68 cells were treated with GemHCl, 4NSG-free SLN, and 4NSG-SLN. Varying concentrations of 4NSG-SLN and 4NSG-free SLN were prepared by diluting their stock solutions with a growth medium. For GemHCl, a stock solution was prepared with phosphate-buffered saline (PBS) and serially diluted with a growth medium to prepare different concentrations: 3, 6, 12, 25, 50, and 100 µM. The cells were treated with 100 µL of each drug concentration in triplicates and incubated for 48 h. At termination, 20 µL of 0.05% resazurin sodium salt (Alamar blue®) was added and incubated at optimum conditions (5% CO2, 37 °C) for 2–4 h. GloMax® Explorer Multimode Microplate reader with a fluorescence excitation wavelength of 560/580 nm and emission wavelength of 590/610 nm was used to determine the percent viable cells per concentration calculated.

PPCL-192 cells = assay: Cell viability (resazurin/Alamar blue), PPCL-192; format: cell-based; details: Homo sapiens; 48 h treatment
Protocol: as §1

PPCL-68 cells = assay: Cell viability (resazurin/Alamar blue), PPCL-68; format: cell-based; details: Homo sapiens; 48 h treatment
Protocol: as §1

PPCL-135 cells = assay: Cell viability (resazurin/Alamar blue), PPCL-135; format: cell-based; details: Homo sapiens; 48 h treatment
Protocol: as §1

[2] = system: pancreatic patient-derived xenograft (PDX) mouse model; design: method as in PMID 33015617; details: earlier work of the authors ref 22; cited from earlier work
[3] = In vitro release of 4NSG (dialysis bag, PBS pH 7.4); format: physicochemical; details: PBS pH 7.4, 37 °C
Protocol: Cumulative in vitro drug release studies were performed as previously described. Free 4NSG (3 mg), freshly prepared and lyophilized 4NSG-SLNs containing approximately 5 mg (suspended in 2 mL PBS) were placed in dialysis bags with molecular weight cut-off (MWCO) of 3.5 kDa) and immersed in their respective labeled 15 mL PBS, (pH 7.4) as the release medium and incubated at 37 °C. The free 4NSG, freshly prepared and lyophilized 4NSG-SLNs solutions were gently stirred at 100 rpm 1 mL aliquots were withdrawn and replenished with fresh PBS (maintained at 37 °C) at 0, 1, 2, 4, 8, and 12 h for analysis. The samples were analyzed for the presence of 4NSG using the HPLC system previously described under the HPLC analysis of 4NSG of the in vitro metabolic stability of the 4NSG section.

[4] = Stability of 4NSG in PBS (pH 7.4); format: physicochemical; details: 4NSG 10 µM, PBS pH 7.4, 37 °C, end of the 4 h study
Protocol: (§2) The metabolic stability of 4NSG was examined in the presence of PBS (pH 7.4) and human liver microsomes as previously described. Human liver microsomes were obtained from Sigma-Aldrich. 4NSG (10 µM) was spiked into PBS, or liver microsomes (1 mg protein/mL) and incubated in a shaking water bath at 37 °C for […]. Aliquots (100 µL) were taken after 0, 15, 30, 60, 120, 180, 220 and 240 min of incubation and immediately pretreated with an ice-cold methanolic solution including the internal standard, vortexed for 3 min and centrifuged (12,000 × g, 10 min). Supernatants were stored at -80 C until required for analysis.
(§3) To determine concentrations of 4NSG in PBS and human liver microsomes solutions, supernatants from PBS and human liver microsomes controls were spiked with aliquots of 0.5 μg/ml of 4NSG. The chromatographic analysis was performed according to the method described with minor modifications. The samples were prepared using aliquots of supernatants (10µL) of control (spiked), PBS, and human liver microsomes. […] A plot of the peak areas as a function of 4NSG concentration was plotted, and the linear equation of the calibration curve given as y = mx + c was determined, where y is the peak area, m is the slope, x is the concentration of 4NSG, and c is the y—intercept.

[5] = In vitro metabolic stability of 4NSG in human liver microsomes; format: in vitro ADME; details: 4NSG 10 µM, liver microsomes 1 mg protein/mL, 37 °C, end of the 4 h study
Protocol: as §2, §3

| Compound | plasma circulation half-life [1] [min] | IC50 (PPCL-46 cells) [µM] | IC50 (PPCL-192 cells) [µM] | IC50 (PPCL-68 cells) [µM] | IC50 (PPCL-135 cells) [µM] | morphological changes to mice's liver and kidney tissues [2] | tumor growth in pancreatic PDX mouse model [2] | further 4NSG release in the next 2 h ([3]; 2 h to 4 h, dialysis bag) [%] | cumulative 4NSG release within the first 2 h ([3]; dialysis bag MWCO 3.5 kDa) | metabolic stability of 4NSG in PBS [4] [%] | percent unchanged 4NSG in human liver microsomal solution [5] |
| --- | --- | --- | --- | --- | --- | --- | --- | --- | --- | --- | --- |
| Nc1ccn([C@@H]2O[C@H](CO)[C@@H](O)C2(F)F)c(=O)n1 [Gem, Gemcitabine] | < 15 | 56 ± 1.8 | 57 ± 1.5 | 57 ± 2.4 | 56 ± 1.5 |  |  |  |  |  |  |
| CCCCCCCCCCCCCCCCCC(=O)Nc1ccn([C@@H]2OC(CO)C(O)C2(F)F)c(=O)n1 (some centres unmarked) [4NSG, 4-(N)-stearoyl-gemcitabine] |  |  |  |  |  | no morphological changes | remarkably reduced tumor growth | 20 | about 60% | 99 | about 90% |
